The test has as its system IL-6 and TNFα. Description: Radiation-irradiating model: inflammatory cytokines IL-6 and TNFα in serum (ELISA). The class given is in vivo, C57b1/6 mice. As to conditions: mice, 8 Gy, 5 nmole/kg SP i.v. How it is done: 5 nmole/kg of SP dissolved in a physiological saline was injected to a tail vein of C57b1/6 mice (8 weeks, sex; male, n=4, Average weight; 20 g) one day before irradiation and immediately after irradiation. The irradiation was performed at 8 Gy radiation in a Gamma lay radiation irradiator (^137Cs, Atomic Energy of Canada, Mississauga, Canada). The mice were sacrificed at 4.5 hours and one day after irradiation, and then the blood was collected. The part of the blood was used for analyzing CBC (Complete Blood Count) and the remaining blood was used to isolate serum and then analyze cytokines
IL-6 and TNFα that are well known as inflammatory cytokines were analyzed. Specific procedures were as follows: Serum samples stored in […] and reagents, controls, and standard proteins stored in a cold storage were taken out at a room temperature. 50 μl of diluted solution was put into each well; 50 μl of standard, control, and samples were added; well mixed by lightly tapping the plate; and then placed for 2 hours at a room temperature. […] After 30 minutes, 100 μl of stop codon was treated to stop the reaction; the optical density was measured at 450 nm; the amounts of cytokines were converted based on a protein conversion formula by a standard sample; and then the result was shown in FIG. 8. […]
Background: ELISA stands for enzyme-linked immunosorbent assay.

Where no end group is shown, it is not given here.

Regarding “Substance-P (RPKPQQFFGLM; not fully specified; ends and bridges not checked; UniProt P20366 58-68, looked up)”, the “inhibition of increase of IL-6 in serum” value (4.5 hours after irradiation, vs group without SP, FIG. 8A) is recorded as “about 30%”. For the same substance, for the setting “one day after irradiation, FIG. 8”, the “TNF α in serum” value is “inhibited”.

Values taken from US8575089B2, “Composition for preventing or treating inflammation” (University-Industry Cooperation Group of Kyung Hee, priority 2009, dated 2013).
